Patent US11952328B2, “Selective ship inhibitors for treating disease” (THE RESEARCH FOUNDATION FOR THE STATE UNIVERSITY OF NEW YORK, priority 2018, dated 2024)

Assays:
SHIP1 = target: T1, SHIP1 (Homo sapiens, UniProt Q92835); assay: Malachite Green phosphatase assay; assay type: biochemical; conditions: at 1 nm and 500 μM
T1 sequence (Q92835 1-1189): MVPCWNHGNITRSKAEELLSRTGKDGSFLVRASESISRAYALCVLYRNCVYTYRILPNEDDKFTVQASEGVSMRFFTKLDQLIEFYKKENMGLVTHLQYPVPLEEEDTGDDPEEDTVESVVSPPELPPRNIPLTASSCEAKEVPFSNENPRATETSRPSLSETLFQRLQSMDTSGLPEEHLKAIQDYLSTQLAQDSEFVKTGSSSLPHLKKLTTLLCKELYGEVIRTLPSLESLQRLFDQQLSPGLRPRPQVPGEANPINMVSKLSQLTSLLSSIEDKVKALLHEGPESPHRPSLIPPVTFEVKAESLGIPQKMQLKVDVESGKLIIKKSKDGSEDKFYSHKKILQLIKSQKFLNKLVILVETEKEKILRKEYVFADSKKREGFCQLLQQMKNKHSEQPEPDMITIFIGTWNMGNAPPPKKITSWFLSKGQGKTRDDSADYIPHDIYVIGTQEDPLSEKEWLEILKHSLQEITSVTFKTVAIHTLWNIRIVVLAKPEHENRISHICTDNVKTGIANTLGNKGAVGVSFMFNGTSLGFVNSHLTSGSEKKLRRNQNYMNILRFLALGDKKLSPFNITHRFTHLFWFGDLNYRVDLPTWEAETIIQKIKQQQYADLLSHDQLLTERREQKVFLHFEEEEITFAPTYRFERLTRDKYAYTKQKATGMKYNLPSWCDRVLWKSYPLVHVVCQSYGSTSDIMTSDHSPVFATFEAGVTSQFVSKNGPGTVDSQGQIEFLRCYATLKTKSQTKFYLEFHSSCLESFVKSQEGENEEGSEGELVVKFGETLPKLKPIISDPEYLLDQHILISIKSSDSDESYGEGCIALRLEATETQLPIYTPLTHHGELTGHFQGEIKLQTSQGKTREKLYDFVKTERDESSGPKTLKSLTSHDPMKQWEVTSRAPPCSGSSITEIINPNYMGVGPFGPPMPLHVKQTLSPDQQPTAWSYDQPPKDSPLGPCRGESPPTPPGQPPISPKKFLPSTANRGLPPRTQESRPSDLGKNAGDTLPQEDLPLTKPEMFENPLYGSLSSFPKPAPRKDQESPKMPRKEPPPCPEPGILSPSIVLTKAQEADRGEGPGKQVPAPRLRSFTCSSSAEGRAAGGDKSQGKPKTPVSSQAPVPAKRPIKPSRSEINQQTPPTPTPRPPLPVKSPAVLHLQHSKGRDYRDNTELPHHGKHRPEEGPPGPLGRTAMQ
Source text: FIGS. 2A-2C show the results of a SHIP1 malachite phosphatase assay. […] This predicts that the sulfonic acid is acting as a phosphate mimic, binding in active site where the 5′-phosphate of PIP3 binds.
K223 is an analog of EDANS, with the corresponding sulfonyl chloride of K223 being used as a donor for developing FRET-based nucleic acid probes and protease substrates. The docking pose of K223 with the model of the SHIP1 active site predicted that the sulfonic acid acts as a phosphate mimic, binding in the active site where the 5′-phosphate of PIP3 binds (FIG. 2B). The origin of the SHIP1 selectivity for K223 was not clear, however the nonpolar naphthalene core rests near K682 in the model of SHIP1, and this residue is a more polar arginine in SHIP2.

T and NK cells = assay: Continuous dosing of patients with selective SHIP1 inhibitor; assay type: in vivo; conditions: administration periods of 3, 4, 5, 6, 7 or more days
Description: An effective dose of selective SHIP1 inhibitor (e.g. K223) is administered by any appropriate means (e.g., orally, intravenously, intraperitoneally) to a patient for administration periods of 3, 4, 5, 6, 7 or more days.

NCCNc1cccc2cccc(S(=O)(=O)O)c12 [Compound K223, 8-((2-aminoethyl)amino)naphthalene-1-sulfonic acid]
inhibition of SHIP1 (SHIP1): potent and selective inhibition of SHIP1
responsiveness of activated T and NK cells (T and NK cells): hyporesponsiveness
